From patent publication EP4741380A1, “ISOXAZOLINE COMPOUND AND USE” (priority 2024, dated 2025)
Read-outs that look alike come from different tables or passages of the source.

System: mites
Test: Mite killing efficacy test with an in vitro model
Conditions: 30 µM drug solution
Protocol: Mite collection: Live mites were gently picked up from a cage box with cotton swabs or small tweezers, 17-26 live mites per group.
Drug treatment and detection method: 100 µL of a drug solution with a different concentration (drug solution prepared by 3% DMSO solution + 97% water and having a target final concentration of 30 µM) was aspirated with a pipette and added to a 24-well plate for each group, ensuring full contact between the drug and the mites. The mites were separately incubated at normal temperature for 5 min, transferred from each plate to another dry 24-well plate with the top sealed, and air-dried for about 1 h. Mite actions were observed, and the number of dead mites/the total number of mites was recorded. Then, the 24-well plate containing the mites was cultured at room temperature and relatively high humidity. The number of dead mites/the total number of mites was counted separately after 1 h, 2 h, 4 h, 6 h, 8 h, 22 h, and 24 h (time points after drug addition), and mite mortality rates were calculated. The project ended 24 h after drug addition.
At a corresponding time point, a mite mortality rate greater than or equal to 90% is denoted as "+++", a mite mortality rate less than 90% and greater than or equal to 50% is denoted as "++", and a mite mortality rate less than 50% is denoted as "+".

[1] = 4 h after drug addition, read-out: Mite Mortality Rate 4 h
[2] = 24 h after drug addition, read-out: Mite Mortality Rate 24 h

| SMILES | mortality at 30 µM [1] [%] | mortality at 30 µM [2] [%] | Mite Mortality Rate 4 h (4 h after drug addition) | Mite Mortality Rate 24 h (24 h after drug addition) |
| --- | --- | --- | --- | --- |
| Cc1cc(C2=NOC(c3cc(Cl)cc(Cl)c3)(C(F)(F)F)C2)ccc1C(=O)NCC(=O)N1CC(C(F)(F)F)C1 (stereo not shown) [Example 023, 4-(5-(3,5-dichlorophenyl)-5-(trifluoromethyl)-4,5-dihydroisoxazol-3-yl)-2-methyl-N-(2-oxo-2-(3-(trifluoromethyl)azetidin-1-yl)ethyl)benzamide] | < 50 | 50 to 90 |  |  |
| Cc1cc(C2=NOC(c3cc(Cl)cc(Cl)c3)(C(F)(F)F)C2)ccc1C(=O)NCC(=O)NC1(C(F)(F)F)CC1 (stereo not shown) [Example 010, 4-(5-(3,5-dichlorophenyl)-5-(trifluoromethyl)-4,5-dihydroisoxazol-3-yl)-2-methyl-N-(2-oxo-2-((1-(trifluoromethyl)cyclopropyl)amino)ethyl)benzamide] | 50 to 90 | > 90 |  |  |
| Cc1cc(C2=NOC(c3cc(Cl)cc(Cl)c3)(C(F)(F)F)C2)ccc1C(=O)NCC1(NCC(F)(F)F)CC1 (stereo not shown) [Example 017] |  |  | + (a mite mortality rate less than 50% is denoted as "+") | ++ (a mite mortality rate less than 90% and greater than or equal to 50% is denoted as "++") |
| Cc1cc(C2=NOC(c3cc(Cl)cc(C(F)(F)F)c3)(C(F)(F)F)C2)ccc1C(=O)NCC(=O)NC1(C(F)(F)F)CC1 (racemic) [Example 007, 4-(5-(3-chloro-5-(trifluoromethyl)phenyl)-5-(trifluoromethyl)-4,5-dihydroisoxazol-3-yl)-2-methy 1-N-(2-oxo-2-((1-(trifluoromethyl)cyclopropyl)amino)ethyl)benzamide] |  |  | ++ (a mite mortality rate less than 90% and greater than or equal to 50% is denoted as "++") | +++ (a mite mortality rate greater than or equal to 90% is denoted as "+++") |
| Cc1cc(C2=NOC(c3cc(Cl)cc(Cl)c3)(C(F)(F)F)C2)ccc1C(=O)NCC(=O)NC1(C(F)(F)F)COC1 (stereo not shown) [Example 002, 4-(5-(3,5-dichlorophenyl)-5-(trifluoromethyl)-4,5-dihydroisoxazol-3-yl)-2-methyl-N-(2-oxo-2-((3-(trifluoromethyl)oxetan-3-yl)amino)ethyl)benzamide] | < 50 | > 90 |  |  |
| Cc1cc(C2=NOC(c3cc(Cl)cc(Cl)c3)(C(F)(F)F)C2)ccc1C(=O)N[C@H](C)C(=O)NC1(C(F)(F)F)CC1 (stereo partly drawn) [Example 035, 4-(5-(3,5-dichlorophenyl)-5-(trifluoromethyl)-4,5-dihydroisoxazol-3-yl)-2-methyl-N-((R)-1-oxo-1-((1-(trifluoromethyl)cyclopropyl)amino)propan-2-yl)benzamide] | < 50 | 50 to 90 |  |  |
| Cc1cc(C2=NOC(c3cc(Cl)cc(Cl)c3)(C(F)(F)F)C2)ccc1C(=O)NCC(=O)N1CC(F)(C(F)(F)F)C1 (stereo not shown) [Example 025, 4-(5-(3,5-dichlorophenyl)-5-(trifluoromethyl)-4,5-dihydroisoxazol-3-yl)-N-(2-(3-fluoro-3-(trifluoromethyl)azetidin-1-yl)-2-oxoethyl)-2-methylbenzamide] | < 50 | < 50 |  |  |
| Cc1cc(C2=NOC(c3cc(Cl)cc(Cl)c3)(C(F)(F)F)C2)c(F)cc1C(=O)NCC(=O)NCC(F)(F)F (stereo not shown) [Example 042] |  |  | +++ (a mite mortality rate greater than or equal to 90% is denoted as "+++") | +++ (a mite mortality rate greater than or equal to 90% is denoted as "+++") |
| Cc1cc(C2=NOC(c3cc(Cl)cc(Cl)c3)(C(F)(F)F)C2)ccc1C(=O)NCC(=O)N1CC(F)(C#N)C1 (stereo not shown) [Example 021, N-(2-(3-cyano-3-fluoroazetidin-1-yl)-2-oxoethyl)-4-(5-(3,5-dichlorophenyl)-5-(trifluoromethyl)-4,5-dihydroisoxazol-3-yl)-2-methylbenzamide] | < 50 | < 50 |  |  |
| Cc1c(C(=O)NCC(=O)NC2CC2)ccc(C2=NOC(c3cc(Cl)cc(Cl)c3)(C(F)(F)F)C2)c1F (stereo not shown) [Example 043, N-(2-(cyclopropylamino)-2-oxoethyl)-4-(5-(3,5-dichlorophenyl)-5-(trifluoromethyl)-4,5-dihydroisoxazol-3-yl)-3-fluoro-2-methylbenzamide] | < 50 | 50 to 90 |  |  |
| Cc1cc(C2=NOC(c3cc(Cl)cc(Cl)c3)(C(F)(F)F)C2)ccc1C(=O)N(C)CC(=O)NC1(C(F)(F)F)CC1 (stereo not shown) [Example 034, 4-(5-(3,5-dichlorophenyl)-5-(trifluoromethyl)-4,5-dihydroisoxazol-3-yl)-N,2-dimethyl-N-(2-oxo-2-((1-(trifluoromethyl)cyclopropyl)amino)ethyl)benzamide] | < 50 | > 90 |  |  |
| Cc1cc(C2=NOC(c3cc(Cl)cc(Cl)c3Cl)(C(F)(F)F)C2)ccc1C(=O)NCC(=O)NC1(C(F)(F)F)CC1 (stereo not shown) [Example 020, 2-methyl-N-(2-oxo-2-((1-(trifluoromethyl)cyclopropyl)amino)ethyl)-4-(5-(2,3,5-trichlorophenyl) -5-(trifluoromethyl)-4,5-dihydroisoxazol-3-yl)benzamide] | < 50 | 50 to 90 |  |  |
| Cc1cc(C2=NOC(c3cc(Cl)cc(Cl)c3)(C(F)(F)F)C2)ccc1C(=O)NCC(=O)NC1(C#N)CC1 (stereo not shown) [Example 024, N-(2-((1-cyanocyclopropyl)amino)-2-oxoethyl)-4-(5-(3,5-dichlorophenyl)-5-(trifluoromethyl)-4,5-dihydroisoxazol-3-yl)-2-methylbenzamide] | < 50 | > 90 |  |  |
| Cc1cc(C2=NOC(c3cc(Cl)cc(OC(F)(F)F)c3)(C(F)(F)F)C2)ccc1C(=O)NCC(=O)NC1(C(F)(F)F)CC1 (stereo not shown) [Example 037, 4-(5-(3-chloro-5-(trifluoromethoxy)phenyl)-5-(trifluoromethyl)-4,5-dihydroisoxazol-3-yl)-2-met hyl-N-(2-oxo-2-((1-(trifluoromethyl)cyclopropyl)amino)ethyl)benzamide] | 50 to 90 | > 90 |  |  |
| Cc1cc(C2=NOC(c3cc(Cl)cc(Cl)c3)(C(F)(F)F)C2)ccc1C(=O)NCC(=O)NCC1(C(F)(F)F)CC1 (stereo not shown) [Example 018] |  |  | + (a mite mortality rate less than 50% is denoted as "+") | ++ (a mite mortality rate less than 90% and greater than or equal to 50% is denoted as "++") |
| Cc1cc(C2=NOC(c3cc(Cl)cc(Cl)c3)(C(F)(F)F)C2)cc(Cl)c1C(=O)NCC(=O)NC1CC1 (stereo not shown) [Example 040, 2-chloro-N-(2-(cyclopropylamino)-2-oxoethyl)-4-(5-(3,5-dichlorophenyl)-5-(trifluoromethyl)-4,5-dihydroisoxazol-3-yl)-6-methylbenzamide] | < 50 | < 50 |  |  |
| Cc1cc(C2=NOC(c3cc(Cl)cc(Cl)c3)(C(F)(F)F)C2)ccc1C(=O)NCC(=O)N1CC(O)(C(F)(F)F)C1 (stereo not shown) [Example 014, 4-(5-(3,5-dichlorophenyl)-5-(trifluoromethyl)-4,5-dihydroisoxazol-3-yl)-N-(2-(3-hydroxy-3-(trifluoromethyl)azetidin-1-yl)-2-oxoethyl)-2-methylbenzamide] | < 50 | < 50 |  |  |
